Numbered stars: 1 amine (or outer) side, 2 acyl side, 3 side chain; on linkers, the order of the positions; unused ones are H or OH. Square brackets hold non-standard residues; d marks the D form. Peptide text beside a SMILES is read from it. X1 = COc1cc(C2c3[nH]c4ccccc4c3CC(C(=O)[*:2])N2[*:1])cc(OC)c1O
Experiments:
PC-12 [1] = assay: H2O2 radical scavenging activity assessed in PC12 cells; type: functional, cell-based; conditions: Rattus norvegicus
Rattus norvegicus [2] = organism: Rattus norvegicus; assay: NO radical scavenging activity assessed as inhibition of Ach-induced vasorelaxation in rat aorta at 0.1 uM; type: functional
Oryctolagus cuniculus [3] = organism: Oryctolagus cuniculus; assay: Effect on PAF-induced platelet aggregation in rabbit platelet-rich plasma at 10 uM; type: functional
Rattus norvegicus [4] = organism: Rattus norvegicus; assay: NO radical scavenging activity assessed as inhibition of Ach-induced vasorelaxation in rat aorta at 0.01 uM; type: functional
Rattus norvegicus [5] = organism: Rattus norvegicus; assay: NO radical scavenging activity assessed as inhibition of Ach-induced vasorelaxation in rat aorta at 1 uM; type: functional
Oryctolagus cuniculus [6] = organism: Oryctolagus cuniculus; assay: Effect on ADP-induced platelet aggregation in rabbit platelet-rich plasma at 10 uM; type: functional
Oryctolagus cuniculus [7] = organism: Oryctolagus cuniculus; assay: Effect on ADP-induced platelet aggregation in rabbit platelet-rich plasma at 1 uM; type: functional
Oryctolagus cuniculus [8] = organism: Oryctolagus cuniculus; assay: Effect on ADP-induced platelet aggregation in rabbit platelet-rich plasma at 0.1 uM; type: functional
Oryctolagus cuniculus [9] = organism: Oryctolagus cuniculus; assay: Effect on PAF-induced platelet aggregation in rabbit platelet-rich plasma at 1 uM; type: functional
Oryctolagus cuniculus [10] = organism: Oryctolagus cuniculus; assay: Effect on PAF-induced platelet aggregation in rabbit platelet-rich plasma at 0.1 uM; type: functional
Rattus norvegicus [11] = assay: Decrease in weight of wet thrombus in rat at 5 umol/kg; type: functional
Rattus norvegicus [12] = assay: Decrease in weight of dry thrombus in rat at 5 umol/kg; type: functional
PC-12 [13] = assay: NO radical scavenging activity assessed in PC12 cells; type: functional, cell-based; conditions: Rattus norvegicus
PC-12 [14] = assay: OH radical scavenging activity assessed in PC12 cells; type: functional, cell-based; conditions: Rattus norvegicus

`COc1cc(C2N[C@H](C(=O)O)Cc3c2[nH]c2ccccc32)cc(OC)c1O` (some centres undefined) showed an EC50 (PC-12 [1]) of 43.7 µM, an inhibition (Rattus norvegicus [2]) of 57.2% and an Activity (Oryctolagus cuniculus [3]) of 36.34%. For the same compound, the inhibition (Rattus norvegicus [4]) was 10.9%, the inhibition (Rattus norvegicus [5]) was 79.9% and the Activity (Oryctolagus cuniculus [6]) was 27.33%. The Activity (Oryctolagus cuniculus [7]) was 46.65%, the Activity (Oryctolagus cuniculus [8]) was 54.88% and the Activity (Oryctolagus cuniculus [9]) was 51.42%. For the same compound, the Activity (Oryctolagus cuniculus [10]) was 55.8%, the Activity (Rattus norvegicus [11]) was 43.76 mg and the Activity (Rattus norvegicus [12]) was 7.27 mg. For the same compound, the EC50 (PC-12 [13]) was 89.7 µM.

`N=C(N)NCCC[C@H](N)C(=O)NCC(=O)N[C@@H](CC(=O)O)C(=O)N[C@@H](CO)C(=O)O` showed an Activity (Oryctolagus cuniculus [3]) of 22.03%, an Activity (Oryctolagus cuniculus [6]) of 16.6% and an Activity (Oryctolagus cuniculus [7]) of 39.62%. For the same compound, the Activity (Oryctolagus cuniculus [8]) was 52.5%, the Activity (Oryctolagus cuniculus [9]) was 36.47% and the Activity (Oryctolagus cuniculus [10]) was 56.69%. For the same compound, the Activity (Rattus norvegicus [11]) was 42.9 mg and the Activity (Rattus norvegicus [12]) was 7.62 mg.

In the case of `N=C(N)NCCC[C@H](N)C(=O)NCC(=O)N[C@@H](CC(=O)O)C(=O)N[C@@H](Cc1ccccc1)C(=O)O` (H-RGDF-OH), the Activity (Oryctolagus cuniculus [3]) is reported as 7.73%, the Activity (Oryctolagus cuniculus [6]) is reported as 7.87% and the Activity (Oryctolagus cuniculus [7]) is reported as 22.71%. The Activity (Oryctolagus cuniculus [8]) was 34.99%, the Activity (Oryctolagus cuniculus [9]) was 24.02% and the Activity (Oryctolagus cuniculus [10]) was 40.39%. The Activity (Rattus norvegicus [11]) was 26.68 mg and the Activity (Rattus norvegicus [12]) was 4.05 mg.

In the case of `CC(C)[C@H](NC(=O)[C@H](CC(=O)O)NC(=O)CNC(=O)[C@@H](N)CCCNC(=N)N)C(=O)O` (H-RGDV-OH), the Activity (Oryctolagus cuniculus [3]) is reported as 20.01%, the Activity (Oryctolagus cuniculus [6]) is reported as 11.65% and the Activity (Oryctolagus cuniculus [7]) is reported as 29.61%. For the same compound, the Activity (Oryctolagus cuniculus [8]) was 51.78%, the Activity (Oryctolagus cuniculus [9]) was 34.84% and the Activity (Oryctolagus cuniculus [10]) was 55.07%. The Activity (Rattus norvegicus [11]) was 35.6 mg and the Activity (Rattus norvegicus [12]) was 6.43 mg.

Compound `COc1cc(C2NC(C(=O)N[C@@H](CCCN=C(N)N)C(=O)NCC(=O)N[C@@H](CC(=O)O)C(=O)N[C@@H](Cc3ccccc3)C(=O)O)Cc3c2[nH]c2ccccc32)cc(OC)c1O` (some centres undefined) (H-[X1]RGDF-OH) has an EC50 (PC-12 [1]) of 67.9 µM, an EC50 (PC-12 [14]) of 90.4 µM and an inhibition (Rattus norvegicus [2]) of 73.3%. The Activity (Oryctolagus cuniculus [3]) was 21.52%, the inhibition (Rattus norvegicus [4]) was 25.4% and the inhibition (Rattus norvegicus [5]) was 90.9%. For the same compound, the Activity (Oryctolagus cuniculus [6]) was 13.11%, the Activity (Oryctolagus cuniculus [7]) was 29.43% and the Activity (Oryctolagus cuniculus [8]) was 38%. The Activity (Oryctolagus cuniculus [9]) was 25.33%, the Activity (Oryctolagus cuniculus [10]) was 36.59% and the Activity (Rattus norvegicus [11]) was 22.09 mg. It also gave an Activity (Rattus norvegicus [12]) of 2.68 mg and an EC50 (PC-12 [13]) of 92.8 µM.

In the case of `COc1cc(C2NC(C(=O)N[C@@H](CCCN=C(N)N)C(=O)NCC(=O)N[C@@H](CC(=O)O)C(=O)N[C@@H](CO)C(=O)O)Cc3c2[nH]c2ccccc32)cc(OC)c1O` (some centres undefined) (H-[X1]RGDS-OH), the EC50 (PC-12 [1]) is reported as 30.6 µM, the EC50 (PC-12 [14]) is reported as 95.4 µM and the inhibition (Rattus norvegicus [2]) is reported as 60.7%. It also gave an Activity (Oryctolagus cuniculus [3]) of 28.61%, an inhibition (Rattus norvegicus [4]) of 12.8% and an inhibition (Rattus norvegicus [5]) of 91.9%. For the same compound, the Activity (Oryctolagus cuniculus [6]) was 11.33%, the Activity (Oryctolagus cuniculus [7]) was 28.31% and the Activity (Oryctolagus cuniculus [8]) was 49.37%. For the same compound, the Activity (Oryctolagus cuniculus [9]) was 34.59%, the Activity (Oryctolagus cuniculus [10]) was 55.62% and the Activity (Rattus norvegicus [11]) was 28.01 mg. It also gave an Activity (Rattus norvegicus [12]) of 5 mg and an EC50 (PC-12 [13]) of 87.6 µM.

For `COc1cc(C2NC(C(=O)N[C@@H](CCCN=C(N)N)C(=O)NCC(=O)N[C@@H](CC(=O)O)C(=O)N[C@H](C(=O)O)C(C)C)Cc3c2[nH]c2ccccc32)cc(OC)c1O` (some centres undefined) (H-[X1]RGDV-OH), the EC50 (PC-12 [1]) was 33.5 µM, the EC50 (PC-12 [14]) was 92.3 µM and the inhibition (Rattus norvegicus [2]) was 71.2%. It also gave an Activity (Oryctolagus cuniculus [3]) of 25.88%, an inhibition (Rattus norvegicus [4]) of 13.3% and an inhibition (Rattus norvegicus [5]) of 92.2%. The Activity (Oryctolagus cuniculus [6]) was 14.38%, the Activity (Oryctolagus cuniculus [7]) was 29.6% and the Activity (Oryctolagus cuniculus [8]) was 50.2%. The Activity (Oryctolagus cuniculus [9]) was 35.8%, the Activity (Oryctolagus cuniculus [10]) was 54.06% and the Activity (Rattus norvegicus [11]) was 29.05 mg. For the same compound, the Activity (Rattus norvegicus [12]) was 4.85 mg and the EC50 (PC-12 [13]) was 90.3 µM.

Reference: ChEMBL document CHEMBL1149335, “Dual-acting agents that possess free radical scavenging and antithrombotic activities: design, synthesis, and evaluation of phenolic tetrahydro-beta-carboline RGD peptide conjugates” (Bioorg Med Chem Lett, 2006)
